Where two headings read alike, the source gives them in different places.
What was measured:
[1] = test system: HCV genotype 1a (H77 strain) replicon in HUH-7 cells; test: HCV replicon luciferase reporter assay, genotype 1a; type: cell-based; conditions: Hepatitis C virus, Huh-7, 72 h, 3 days incubation
How it was run: (§1)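 Replicon inhibition for both genotypes was measured as Renilla luciferase signal (EnduRen, 7.5 μM final, 2 h) after 3-day, 37° C exposure of replicon-bearing HUH-7 cells in 4% FCS DMEM, 0.5% DMSO. The 1b construct carries S1179I; the 1a H77 construct carries P1496L and S2204I. Twenty-point, 3-fold dilutions were fitted four-parametrically for EC50, and CC50 was taken from multiplexed Cell Titer-Blue.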

[2] = test system: HCV genotype 1b (Con1) replicon in HUH-7 cells; test: HCV replicon luciferase reporter assay, genotype 1b; type: cell-based; conditions: Hepatitis C virus, Huh-7, 72 h, 3 days incubation
How it was run: as §1

[3] = HCV genotype 1a replicon luciferase assay, range class, read-out: LE_1a (EC50, range)
[4] = HCV genotype 1b replicon luciferase assay, range class, read-out: LE_1b (EC50, range)
[5] = HCV genotype 1a replicon luciferase, read-out: LE_1a (EC50, range)
[6] = HCV genotype 1b replicon luciferase, read-out: LE_1b (EC50, range)

Compound | EC50 [1, 5] [nM] | EC50 [2, 6] [nM] | also measured
COc1cnc(O[C@@H]2C[C@H]3C(=O)N[C@]4(C(=O)NS(=O)(=O)C5(CF)CC5)C[C@H]4/C=C\CC[C@H](C)C[C@@H](C)[C@H](NC(=O)OC(C)(C)C(F)(F)F)C(=O)N3C2)c2ccc(N(C)C)cc12 [Compound 3143, 1,1,1-trifluoro-2-methylpropan-2-yl((2R,6S,7R,9S,13aS,14aR,16aS,Z)-2-((6-(dimethylamino)-4-methoxyisoquinolin-1-yl)oxy)-14a-(((1-(fluoromethyl)cyclopropyl)sulfonyl)carbamoyl)-7,9-dimethyl-5,16-dioxo-1,2,3,5,6,7,8,9,10,11,13a,14,14a,15,16,16a-hexadecahydrocyclopropa[e]pyrrolo[1,2-a][1,4]diazacyclopentadecin-6-yl)carbamate] | – | – | EC50 [1, 3]: < 5.46 nM; EC50 [2, 4]: < 5.46 nM
[2H]C([2H])([2H])Oc1cnc(O[C@@H]2C[C@H]3C(=O)N[C@]4(C(=O)NS(=O)(=O)C5(C)CC5)C[C@H]4/C=C\CC[C@@H](C)C[C@@H](C)[C@H](NC(=O)OC(C)(C)C(F)(F)F)C(=O)N3C2)c2ccccc12 [Compound 5103, 1,1,1-trifluoro-2-methylpropan-2-yl((2R,6S,7R,9R,13aS,14aR,16aS,Z)-7,9-dimethyl-14a-(((1-methylcyclopropyl)sulfonyl)carbamoyl)-5,16-dioxo-2-((4-(trideuteromethoxy)isoquinolin-1-yl)oxy)-1,2,3,5,6,7,8,9,10,11,13a,14,14a,15,16,16a-hexadecahydrocyclopropa[e]pyrrolo[1,2-a][1,4]diazacyclopentadecin-6-yl)carbamate] | < 5.46 | < 5.46 | –
CC[C@@H]1C[C@H](C)CC/C=C\[C@@H]2C[C@@]2(C(=O)NS(=O)(=O)C2(C)CC2)NC(=O)[C@@H]2C[C@@H](Oc3ncc(C(=O)O)c4cc(OC)ccc34)CN2C(=O)[C@H]1NC(=O)OC(C)(C)C [Compound 4277, 1-(((2R,6S,7R,9R,13aS,14aR,16aS,Z)-6-((tert-butoxycarbonyl)amino)-7-ethyl-9-methyl-14a-(((1-methylcyclopropyl)sulfonyl)carbamoyl)-5,16-dioxo-1,2,3,5,6,7,8,9,10,11,13a,14,14a,15,16,16a-hexadecahydrocyclopropa[e]pyrrolo[1,2-a][1,4]diazacyclopentadecin-2-yl)oxy)-6-methoxyisoquinoline-4-carboxylic acid] | 35 to 620 | 35 to 620 | EC50 ([1]; HCV genotype 1a replicon luciferase, read-out: LE_1a (EC50)): ≥ 1000 nM; EC50 ([2]; HCV genotype 1b replicon luciferase, read-out: LE_1b (EC50)): 218 nM
COc1ccc2c(O[C@@H]3C[C@H]4C(=O)N[C@]5(C(=O)NS(=O)(=O)C6(C)CC6)C[C@H]5/C=C\CC[C@@H](C)C[C@@H](C)[C@H](N)C(=O)N4C3)ncc(OC)c2c1 [Compound 4228, (2R,6S,7R,9R,13aS,14aR,16aS,Z)-6-amino-2-(4,6-dimethoxyisoquinolin-1-yloxy)-7,9-dimethyl-N-(1-methylcyclopropylsulfonyl)-5,16-dioxo-1,2,3,5,6,7,8,9,10,11,13a,14,14a,15,16,16a-hexadecahydrocyclopropa[e]pyrrolo[1,2-a][1,4]diazacyclopentadecine-14a-carboxamide] | < 5.46 | < 5.46 | –
CCC(C)(CC)OC(=O)N[C@@H]1C(=O)N2C[C@H](Oc3nccc4c5c(ccc34)OCCO5)C[C@H]2C(=O)N[C@]2(C(=O)NS(=O)(=O)C3CC3)C[C@H]2/C=C\CC[C@H](C)C[C@H]1C [Compound 5265, 3-methylpentan-3-yl((2R,6S,7R,9S,13aS,14aR,16aS,Z)-14a-((cyclopropylsulfonyl)carbamoyl)-2-((2,3-dihydro-[1,4]dioxino[2,3-f]isoquinolin-7-yl)oxy)-7,9-dimethyl-5,16-dioxo-1,2,3,5,6,7,8,9,10,11,13a,14,14a,15,16,16a-hexadecahydrocyclopropa[e]pyrrolo[1,2-a][1,4]diazacyclopentadecin-6-yl)carbamate] | 4.82 to 103 | < 5.46 | –
CC[C@@H]1C[C@H](C)CC/C=C\[C@@H]2C[C@@]2(C(=O)NS(=O)(=O)C2CC2)NC(=O)[C@@H]2C[C@@H](Oc3nccc4cc(OC)c(F)cc34)CN2C(=O)[C@H]1NC(=O)OC(C)(C)C(C)(F)F [Compound 5473, 3,3-difluoro-2-methylbutan-2-yl((2R,6S,7R,9R,13aS,14aR,16aS,Z)-14a-((cyclopropylsulfonyl)carbamoyl)-7-ethyl-2-((7-fluoro-6-methoxyisoquinolin-1-yl)oxy)-9-methyl-5,16-dioxo-1,2,3,5,6,7,8,9,10,11,13a,14,14a,15,16,16a-hexadecahydrocyclopropa[e]pyrrolo[1,2-a][1,4]diazacyclopentadecin-6-yl)carbamate] | 1.01 to 5 | 0.1 to 0.5 | –
COCCOc1cnc(O[C@@H]2C[C@H]3C(=O)N[C@]4(C(=O)NS(=O)(=O)C5CC5)C[C@H]4/C=C\CC[C@@H](C)C[C@@H](C)[C@H](NC(=O)OC(C)(C)C(F)(F)F)C(=O)N3C2)c2ccc(OC)cc12 [Compound 1147, 1,1,1-trifluoro-2-methylpropan-2-yl((2R,6S,7R,9R,13aS,14aR,16aS,Z)-14a-((cyclopropylsulfonyl)carbamoyl)-2-((6-methoxy-4-(2-methoxyethoxyl)isoquinolin-1-yl)oxy)-7,9-dimethyl-5,16-dioxo-1,2,3,5,6,7,8,9,10,11,13a,14,14a,15,16,16a-hexadecahydrocyclopropa[e]pyrrolo[1,2-a][1,4]diazacyclopentadecin-6-yl)carbamate] | – | – | EC50 [1, 3]: < 5.46 nM; EC50 [2, 4]: < 5.46 nM
CCOc1cnc(O[C@@H]2C[C@H]3C(=O)N[C@]4(C(=O)NS(=O)(=O)C5(F)CC5)C[C@H]4/C=C\CC[C@@H](C)C[C@@H](C)[C@H](NC(=O)OC(C)(C)C)C(=O)N3C2)c2ccccc12 [Compound 4053, tert-butyl (2R,6S,7R,9R,13aS,14aR,16aS,Z)-2-(4-ethoxyisoquinolin-1-yloxy)-14a-(1-fluorocyclopropylsulfonylcarbamoyl)-7,9-dimethyl-5,16-dioxo-1,2,3,5,6,7,8,9,10,11,13a,14,14a,15,16,16a-hexadecahydrocyclopropa[e]pyrrolo[1,2-a][1,4]diazacyclopentadecin-6-ylcarbamate] | < 5.46 | < 5.46 | –
CC[C@@H]1C[C@H](C)CC/C=C\[C@@H]2C[C@@]2(C(=O)NS(=O)(=O)C2CC2)NC(=O)[C@@H]2C[C@@H](Oc3nccc4c5c(ccc34)OCCO5)CN2C(=O)[C@H]1NC(=O)OC(C)(C)C(F)(F)F [Compound 5338, 1,1,1-trifluoro-2-methylpropan-2-yl((2R,6S,7R,9R,13aS,14aR,16aS,Z)-14a-((cyclopropylsulfonyl)carbamoyl)-2-((2,3-dihydro-[1,4]dioxino[2,3-f]isoquinolin-7-yl)oxy)-7-ethyl-9-methyl-5,16-dioxo-1,2,3,5,6,7,8,9,10,11,13a,14,14a,15,16,16a-hexadecahydrocyclopropa[e]pyrrolo[1,2-a][1,4]diazacyclopentadecin-6-yl)carbamate] | < 5.46 | < 5.46 | –
CCOc1nnc(O[C@@H]2C[C@H]3C(=O)N[C@]4(C(=O)NS(=O)(=O)C5CC5)C[C@H]4/C=C\CC[C@@H](C)C[C@@H](C)[C@H](NC(=O)NC(C)(C)C)C(=O)N3C2)c2ccccc12 [Compound 5041, (2R,6S,7R,9R,13aS,14aR,16aS,Z)-6-(3-(tert-butyl)ureido)-N-(cyclopropylsulfonyl)-2-((4-ethoxyphthalazin-1-yl)oxy)-7,9-dimethyl-5,16-dioxo-1,2,3,5,6,7,8,9,10,11,13a,14,14a,15,16,16a-hexadecahydrocyclopropa[e]pyrrolo[1,2-a][1,4]diazacyclopentadecine-14a-carboxamide] | < 5.46 | 4.82 to 103 | –
COc1cc2nc(O[C@@H]3C[C@H]4C(=O)N[C@]5(C(=O)NS(=O)(=O)C6(C)CC6)C[C@H]5/C=C\CC[C@@H](C)C[C@@H](C)[C@H](NC(=O)OC(C)(C)C(F)(F)F)C(=O)N4C3)c(C(F)(F)F)nc2cc1F [Compound 4290] | – | – | EC50 ([1]; GETYPE1A, HCV genotype 1a replicon luciferase, read-out: LE_1a (EC50, range)): 1.01 to 5 nM; EC50 ([2]; GETYPE1B, HCV genotype 1b replicon luciferase, read-out: LE_1b (EC50, range)): 0.51 to 1 nM
CC[C@@H]1C[C@@H](C)CC/C=C\[C@@H]2C[C@@]2(C(=O)NS(=O)(=O)C2(C)CC2)NC(=O)[C@@H]2C[C@@H](Oc3nc(OC)cc4ccccc34)CN2C(=O)[C@H]1NC(=O)OC(C)(C)C [Compound 6004, tert-butyl ((2R,6S,7R,9S,13aS,14aR,16aS,Z)-7-ethyl-2-((3-methoxyisoquinolin-1-yl)oxy)-9-methyl-14a-(((1-methylcyclopropyl)sulfonyl)carbamoyl)-5,16-dioxo-1,2,3,5,6,7,8,9,10,11,13a,14,14a,15,16,16a-hexadecahydrocyclopropa[e]pyrrolo[1,2-a][1,4]diazacyclopentadecin-6-yl)carbamate] | 4.82 to 103 | < 5.46 | –
CCOc1nnc(O[C@@H]2C[C@H]3C(=O)N[C@]4(C(=O)NS(=O)(=O)C5CC5)C[C@H]4/C=C\CC[C@H](C)C[C@@H](CC)[C@H](NC(=O)OC(C)(C)C(F)(F)F)C(=O)N3C2)c2ccccc12 [Compound 5044, 1,1,1-trifluoro-2-methylpropan-2-yl((2R,6S,7R,9S,13aS,14aR,16aS,Z)-14a-((cyclopropylsulfonyl)carbamoyl)-2-((4-ethoxyphthalazin-1-yl)oxy)-7-ethyl-9-methyl-5,16-dioxo-1,2,3,5,6,7,8,9,10,11,13a,14,14a,15,16,16a-hexadecahydrocyclopropa[e]pyrrolo[1,2-a][1,4]diazacyclopentadecin-6-yl)carbamate] | 4.82 to 103 | 4.82 to 103 | –

Reference: patent US9499550B2 (BRISTOL-MYERS SQUIBB COMPANY, priority 2012, dated 2016)
